# In patent US20160375006A1, “USES OF PARALOG-SELECTIVE INHIBITORS OF GSK3 KINASES” (priority 2012, published 2016):
# Where two headings read alike, the source gives them in different places.
# How the values were obtained:
# TAOK2 = TAOK2 (Homo sapiens, UniProt Q9UL54)
# Procedure: (§1) This was completed utilizing one of two assays depending on the kinase being examined.
# (§2) A solution of IMAP binding reagent (IMAP Screening Express kit; Molecular Devices) (60 μL) was added to each well and incubated for 30 minutes.
# (§3) A solution of termination buffer (QuickScout Screening assist MSA; Carna Biosciences) (60 μL) was added to each well. The entire reaction mixture was then applied to a LabChip3000 system (Caliper Life Science) and the product and substrate peptide peaks were separated and quantified.
# FES = FES (Homo sapiens, UniProt P07332)
# Procedure: as §1, §2, §3
# (§4) The assay utilized was identical to that of the single point inhibitory activity determination (MSA) but run in dose response. […] A solution of termination buffer (QuickScout Screening assist MSA; Carna Biosciences) (60 μL) was added to each well. The entire reaction mixture was then applied to a LabChip3000 system (Caliper Life Science) and the product and substrate peptide peaks were separated and quantified.
# MSSK1 = MSSK1 (Homo sapiens, UniProt Q9UPE1)
# Procedure: as §1, §2, §3, §4
# PHKG2 = PHKG2 (Homo sapiens, UniProt P15735)
# Procedure: as §1, §2, §3
# ALK(F1174L) = ALK(F1174L) (Homo sapiens, UniProt Q9UM73, F1174L)
# Procedure: as §1, §2, §3
# PLK1 = target: T1, PLK1 (Homo sapiens, UniProt P53350); test: Carna kinase panel; type: biochemical
# T1 construct: purchased Carna Biosciences
# Procedure: as §1, §2, §3
# AMPKα2/β1/γ1 = AMPKα2/β1/γ1 (Homo sapiens, UniProt P54646)
# Procedure: as §1, §3
# The assay utilized was identical to that of the single point inhibitory activity determination (MSA) but run in dose response.
# MAP3K1_Cascade = MAP3K1_Cascade (Homo sapiens, UniProt Q13233)
# Procedure: as §1, §2, §3, §4
# MST1 = MST1 (Homo sapiens, UniProt Q13043)
# Procedure: as §1, §2, §3, §4
# SRM = SRM (Homo sapiens, UniProt Q9H3Y6)
# Procedure: as §1, §2, §3, §4
# CK2α1/β = CK2α1/β (Homo sapiens, UniProt P68400)
# Procedure: as §1, §2, §3, §4
# MOS_Cascade = MOS_Cascade (Homo sapiens, UniProt P00540)
# Procedure: as §1, §2, §3, §4
# PAK6 = PAK6 (Homo sapiens, UniProt Q9NQU5)
# Procedure: as §1, §2, §3, §4
# EEF2K = EEF2K (Homo sapiens, UniProt O00418)
# Procedure: as §1, §2, §3
# CDK4/CycD3 = CDK4/CycD3 (Homo sapiens, UniProt P11802)
# Procedure: as §1, §2, §3
# TEC = TEC (Homo sapiens, UniProt P42680)
# Procedure: as §1, §2, §3, §4
# IKKε = IKKε (Homo sapiens, UniProt Q14164)
# Procedure: as §1, §2, §3, §4
# FGFR4(V550E) = FGFR4(V550E) (Homo sapiens, UniProt P22455, V550E)
# Procedure: as §1, §2, §3, §4
# CDK9/CycT1 = CDK9/CycT1 (Homo sapiens, UniProt P50750)
# Procedure: as §1, §2, §3, §4
# PKD3 = PKD3 (Homo sapiens, UniProt O94806)
# Procedure: as §1, §2, §3
# FYN = FYN (Homo sapiens, UniProt P06241)
# Procedure: as §1, §2, §3, §4
# CHK2 = CHK2 (Homo sapiens, UniProt O96017)
# Procedure: as §1, §2, §3, §4
# PGK = PGK (Homo sapiens, UniProt Q13976)
# Procedure: as §1, §2, §3, §4
# PDGFRα = PDGFRα (Homo sapiens, UniProt P16234)
# Procedure: as §1, §2, §3, §4
# MAPKAPK5 = MAPKAPK5 (Homo sapiens, UniProt Q8IW41)
# Procedure: as §1, §2, §3, §4
# KIT(V560G) = KIT(V560G) (Homo sapiens, UniProt P10721, V560G)
# Procedure: as §1, §2, §3, §4
# FGFR4 = FGFR4 (Homo sapiens, UniProt P22455)
# Procedure: as §1, §2, §3
# NEK7 = NEK7 (Homo sapiens, UniProt Q8TDX7)
# Procedure: as §1, §2, §3, §4
# p70S6K = p70S6K (Homo sapiens, UniProt P23443)
# Procedure: as §1, §2, §3, §4
# CDK3/CycE1 = CDK3/CycE1 (Homo sapiens, UniProt Q00526)
# Procedure: as §1, §2, §3, §4
# CRIK = CRIK (Homo sapiens, UniProt O14578)
# Procedure: as §1, §2, §3
# IRR = IRR (Homo sapiens, UniProt P14616)
# Procedure: as §1, §2, §3, §4
# MUSK = MUSK (Homo sapiens, UniProt O15146)
# Procedure: as §1, §2, §3, §4
# SGK = SGK (Homo sapiens, UniProt O00141)
# Procedure: as §1, §2, §3, §4
# FGFR2 = FGFR2 (Homo sapiens, UniProt P21802)
# Procedure: as §1, §2, §3
# CK1γ1 = CK1γ1 (Homo sapiens, UniProt Q9HCP0)
# Procedure: as §1, §2, §3, §4
# DCAMKL2 = DCAMKL2 (Homo sapiens, UniProt Q8N568)
# Procedure: as §1, §2, §3, §4
# PAK2 = PAK2 (Homo sapiens, UniProt Q13177)
# Procedure: as §1, §2, §3, §4
# DAPK1 = DAPK1 (Homo sapiens, UniProt P53355)
# Procedure: as §1, §2, §3, §4
# COT_Cascade = COT_Cascade (Homo sapiens, UniProt P41279)
# Procedure: as §1, §2, §3, §4
# CDK3/CycE1, sequence (Q00526 whole entry): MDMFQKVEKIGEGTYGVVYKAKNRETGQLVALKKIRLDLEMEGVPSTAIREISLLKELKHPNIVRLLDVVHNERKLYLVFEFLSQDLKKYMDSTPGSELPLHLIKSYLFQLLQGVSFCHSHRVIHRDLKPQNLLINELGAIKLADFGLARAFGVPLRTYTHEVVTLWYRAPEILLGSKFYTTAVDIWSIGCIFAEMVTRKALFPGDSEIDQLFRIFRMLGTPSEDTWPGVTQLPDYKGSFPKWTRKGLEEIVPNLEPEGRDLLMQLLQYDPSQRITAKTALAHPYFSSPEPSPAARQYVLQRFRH
# CDK3/CycE1, sequence (P24864 whole entry partner): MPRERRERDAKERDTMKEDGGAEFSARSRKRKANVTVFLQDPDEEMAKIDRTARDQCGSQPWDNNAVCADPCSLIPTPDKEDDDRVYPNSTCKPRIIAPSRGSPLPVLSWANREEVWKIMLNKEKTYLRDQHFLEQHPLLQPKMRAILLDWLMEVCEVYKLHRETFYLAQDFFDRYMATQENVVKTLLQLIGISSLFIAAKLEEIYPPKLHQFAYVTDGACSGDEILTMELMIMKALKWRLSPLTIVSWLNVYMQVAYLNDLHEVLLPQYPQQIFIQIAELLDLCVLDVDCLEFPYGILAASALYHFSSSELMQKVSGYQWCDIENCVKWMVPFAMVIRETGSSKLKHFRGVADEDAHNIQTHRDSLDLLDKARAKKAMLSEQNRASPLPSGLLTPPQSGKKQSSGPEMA
# MOS_Cascade, sequence (P00540 whole entry): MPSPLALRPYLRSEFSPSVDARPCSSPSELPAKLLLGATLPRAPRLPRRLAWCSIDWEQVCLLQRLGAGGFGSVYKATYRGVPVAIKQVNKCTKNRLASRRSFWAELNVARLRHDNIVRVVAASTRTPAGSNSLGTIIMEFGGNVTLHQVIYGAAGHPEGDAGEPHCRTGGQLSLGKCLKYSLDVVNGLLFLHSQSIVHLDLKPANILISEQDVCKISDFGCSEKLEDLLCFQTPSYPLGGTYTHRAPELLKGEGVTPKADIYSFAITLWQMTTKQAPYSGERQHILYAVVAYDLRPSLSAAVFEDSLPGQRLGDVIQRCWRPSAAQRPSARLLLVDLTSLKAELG
# T1 sequence (P53350 whole entry): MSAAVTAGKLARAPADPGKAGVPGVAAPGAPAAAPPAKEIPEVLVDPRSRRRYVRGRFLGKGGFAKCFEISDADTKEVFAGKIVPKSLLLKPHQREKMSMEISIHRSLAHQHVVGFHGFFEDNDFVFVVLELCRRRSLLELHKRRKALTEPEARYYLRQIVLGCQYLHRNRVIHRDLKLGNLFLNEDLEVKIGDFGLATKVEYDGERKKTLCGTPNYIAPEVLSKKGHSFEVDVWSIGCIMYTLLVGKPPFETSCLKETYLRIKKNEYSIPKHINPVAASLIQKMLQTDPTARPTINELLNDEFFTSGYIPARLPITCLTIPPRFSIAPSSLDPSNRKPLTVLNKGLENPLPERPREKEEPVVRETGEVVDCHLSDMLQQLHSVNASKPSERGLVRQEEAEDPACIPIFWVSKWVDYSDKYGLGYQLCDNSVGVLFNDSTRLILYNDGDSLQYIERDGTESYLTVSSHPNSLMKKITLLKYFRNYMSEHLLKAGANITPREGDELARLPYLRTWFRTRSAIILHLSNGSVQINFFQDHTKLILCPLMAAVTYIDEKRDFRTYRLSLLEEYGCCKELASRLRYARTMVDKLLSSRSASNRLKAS
# CK2α1/β, sequence (P68400 whole entry): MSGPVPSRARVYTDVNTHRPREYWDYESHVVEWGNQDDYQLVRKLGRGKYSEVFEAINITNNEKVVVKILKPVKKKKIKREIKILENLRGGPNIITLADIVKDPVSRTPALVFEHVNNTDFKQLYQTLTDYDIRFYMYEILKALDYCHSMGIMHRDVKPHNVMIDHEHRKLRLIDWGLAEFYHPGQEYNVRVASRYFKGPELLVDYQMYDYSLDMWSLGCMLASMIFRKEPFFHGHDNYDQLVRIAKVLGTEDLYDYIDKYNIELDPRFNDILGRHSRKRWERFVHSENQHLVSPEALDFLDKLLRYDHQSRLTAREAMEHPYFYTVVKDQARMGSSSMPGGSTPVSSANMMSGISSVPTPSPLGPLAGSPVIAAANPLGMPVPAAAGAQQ
# CK2α1/β, sequence (P67870 whole entry partner): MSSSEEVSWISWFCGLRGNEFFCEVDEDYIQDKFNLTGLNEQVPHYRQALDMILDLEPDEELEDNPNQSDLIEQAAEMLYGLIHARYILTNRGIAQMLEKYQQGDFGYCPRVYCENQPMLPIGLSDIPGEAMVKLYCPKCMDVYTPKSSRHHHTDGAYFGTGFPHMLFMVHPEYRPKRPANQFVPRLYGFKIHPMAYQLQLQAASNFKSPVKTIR
# DCAMKL2, sequence (Q8N568 whole entry): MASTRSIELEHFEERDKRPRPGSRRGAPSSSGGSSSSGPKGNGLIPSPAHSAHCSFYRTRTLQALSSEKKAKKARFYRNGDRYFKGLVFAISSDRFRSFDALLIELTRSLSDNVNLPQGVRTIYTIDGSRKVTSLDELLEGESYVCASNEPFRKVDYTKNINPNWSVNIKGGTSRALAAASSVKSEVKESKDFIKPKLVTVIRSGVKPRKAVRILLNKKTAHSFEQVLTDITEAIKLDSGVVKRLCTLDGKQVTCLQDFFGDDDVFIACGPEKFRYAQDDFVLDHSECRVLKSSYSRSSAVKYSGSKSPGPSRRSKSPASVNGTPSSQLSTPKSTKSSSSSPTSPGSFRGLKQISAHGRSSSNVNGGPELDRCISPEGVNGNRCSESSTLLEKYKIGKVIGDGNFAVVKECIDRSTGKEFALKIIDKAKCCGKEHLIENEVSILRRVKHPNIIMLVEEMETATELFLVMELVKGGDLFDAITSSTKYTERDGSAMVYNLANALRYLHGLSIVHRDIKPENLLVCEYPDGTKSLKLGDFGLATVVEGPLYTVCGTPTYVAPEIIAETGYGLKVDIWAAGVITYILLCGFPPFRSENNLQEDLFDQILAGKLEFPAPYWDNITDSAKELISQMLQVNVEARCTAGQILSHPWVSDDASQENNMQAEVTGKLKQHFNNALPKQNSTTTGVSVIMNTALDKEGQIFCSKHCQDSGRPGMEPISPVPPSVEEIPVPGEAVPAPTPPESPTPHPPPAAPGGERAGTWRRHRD
# TAOK2, sequence (Q9UL54 whole entry): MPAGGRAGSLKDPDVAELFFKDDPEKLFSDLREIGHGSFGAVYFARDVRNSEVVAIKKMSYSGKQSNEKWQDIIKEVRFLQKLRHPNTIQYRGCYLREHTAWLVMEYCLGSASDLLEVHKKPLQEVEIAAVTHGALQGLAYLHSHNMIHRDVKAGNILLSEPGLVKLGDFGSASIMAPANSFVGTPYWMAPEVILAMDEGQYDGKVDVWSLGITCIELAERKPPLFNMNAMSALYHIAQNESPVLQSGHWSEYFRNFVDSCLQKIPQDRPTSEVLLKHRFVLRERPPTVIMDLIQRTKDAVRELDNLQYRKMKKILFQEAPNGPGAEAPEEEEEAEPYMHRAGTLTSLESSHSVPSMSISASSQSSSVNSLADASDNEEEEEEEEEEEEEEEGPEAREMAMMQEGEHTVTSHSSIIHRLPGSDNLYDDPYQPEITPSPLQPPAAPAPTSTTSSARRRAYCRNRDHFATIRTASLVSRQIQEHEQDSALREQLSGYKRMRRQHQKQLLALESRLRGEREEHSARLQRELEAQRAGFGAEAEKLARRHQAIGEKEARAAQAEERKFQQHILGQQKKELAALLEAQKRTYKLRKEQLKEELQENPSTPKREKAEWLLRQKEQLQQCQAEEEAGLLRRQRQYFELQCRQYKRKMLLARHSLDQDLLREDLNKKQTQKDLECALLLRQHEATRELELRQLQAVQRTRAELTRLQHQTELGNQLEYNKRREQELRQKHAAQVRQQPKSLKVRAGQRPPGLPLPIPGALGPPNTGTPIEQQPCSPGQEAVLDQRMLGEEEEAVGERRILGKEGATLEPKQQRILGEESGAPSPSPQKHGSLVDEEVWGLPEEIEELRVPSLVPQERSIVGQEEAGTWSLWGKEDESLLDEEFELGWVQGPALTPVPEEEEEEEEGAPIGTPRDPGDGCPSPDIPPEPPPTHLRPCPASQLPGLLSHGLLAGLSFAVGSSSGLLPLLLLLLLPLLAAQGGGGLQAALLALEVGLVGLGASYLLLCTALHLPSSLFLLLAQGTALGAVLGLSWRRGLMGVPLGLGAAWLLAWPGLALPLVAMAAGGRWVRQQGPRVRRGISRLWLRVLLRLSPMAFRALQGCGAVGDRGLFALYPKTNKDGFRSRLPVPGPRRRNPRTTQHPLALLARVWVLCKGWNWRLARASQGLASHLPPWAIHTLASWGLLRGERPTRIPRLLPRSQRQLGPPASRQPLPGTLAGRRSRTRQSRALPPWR
# PGK, sequence (Q13976 whole entry): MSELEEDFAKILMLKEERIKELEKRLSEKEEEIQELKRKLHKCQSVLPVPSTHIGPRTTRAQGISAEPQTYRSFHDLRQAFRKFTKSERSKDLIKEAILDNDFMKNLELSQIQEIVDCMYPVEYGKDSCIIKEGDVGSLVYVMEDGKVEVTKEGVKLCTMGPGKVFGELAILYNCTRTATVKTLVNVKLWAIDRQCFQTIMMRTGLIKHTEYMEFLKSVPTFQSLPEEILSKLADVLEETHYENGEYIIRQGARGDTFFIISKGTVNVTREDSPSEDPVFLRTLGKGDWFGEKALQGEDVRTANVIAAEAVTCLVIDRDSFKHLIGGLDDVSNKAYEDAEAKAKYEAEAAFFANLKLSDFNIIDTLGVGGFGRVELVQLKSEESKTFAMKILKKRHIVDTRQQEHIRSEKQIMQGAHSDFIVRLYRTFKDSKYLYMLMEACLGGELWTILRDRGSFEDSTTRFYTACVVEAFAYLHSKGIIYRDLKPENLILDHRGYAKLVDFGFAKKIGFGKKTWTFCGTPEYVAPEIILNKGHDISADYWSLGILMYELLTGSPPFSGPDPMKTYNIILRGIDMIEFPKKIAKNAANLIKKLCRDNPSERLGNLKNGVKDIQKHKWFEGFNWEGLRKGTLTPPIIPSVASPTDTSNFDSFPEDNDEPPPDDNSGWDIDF
smiles,measurement,setting,value
CC[C@@]1(c2ccccc2)C2=C(CC(C)(C)CC2=O)Nc2n[nH]cc21 [BRD0705],% Inhibition at 10 μM,TAOK2,−5.8%
same,% Inhibition at 10 μM,FES,0.6%
same,% Inhibition at 10 μM,MSSK1,−1.6%
same,% Inhibition at 10 μM,PHKG2,−5.8%
same,% Inhibition at 10 μM,ALK(F1174L),1.7%
same,% Inhibition at 10 μM,PLK1,−12.3%
same,% Inhibition at 10 μM,AMPKα2/β1/γ1,5.1%
same,% Inhibition at 10 μM,MAP3K1_Cascade,1.8%
same,% Inhibition at 10 μM,MST1,−7.3%
same,% Inhibition at 10 μM,SRM,−5.5%
same,% Inhibition at 10 μM,CK2α1/β,−6.0%
same,% Inhibition at 10 μM,MOS_Cascade,−1.0%
same,% Inhibition at 10 μM,PAK6,−10.7%
same,% Inhibition at 10 μM,EEF2K,−6.4%
same,% Inhibition at 10 μM,CDK4/CycD3,−9.1%
same,% Inhibition at 10 μM,TEC,−0.4%
same,% Inhibition at 10 μM,IKKε,−4.5%
same,% Inhibition at 10 μM,FGFR4(V550E),−0.5%
same,% Inhibition at 10 μM,CDK9/CycT1,8.4%
same,% Inhibition at 10 μM,PKD3,3.9%
same,% Inhibition at 10 μM,FYN,3.1%
same,% Inhibition at 10 μM,CHK2,−3.6%
same,% Inhibition at 10 μM,PGK,−2.1%
same,% Inhibition at 10 μM,PDGFRα,−0.8%
same,% Inhibition at 10 μM,MAPKAPK5,−1.0%
same,% Inhibition at 10 μM,KIT(V560G),−1.7%
same,% Inhibition at 10 μM,FGFR4,−13.4%
same,% Inhibition at 10 μM,NEK7,−1.0%
same,% Inhibition at 10 μM,p70S6K,−7.8%
same,% Inhibition at 10 μM,CDK3/CycE1; CDK3/CycE1,52.8%
same,IC50,CDK3/CycE1; read-out: IC50 CDK3/CycE1,9.74 µM
same,% Inhibition at 10 μM,CRIK,−15.2%
same,% Inhibition at 10 μM,IRR,4.0%
same,% Inhibition at 10 μM,MUSK,−0.6%
same,% Inhibition at 10 μM,SGK,−4.4%
same,% Inhibition at 10 μM,FGFR2,−9.2%
same,% Inhibition at 10 μM,CK1γ1,−3.4%
same,% Inhibition at 10 μM,DCAMKL2,−0.5%
same,% Inhibition at 10 μM,PAK2,6.4%
same,% Inhibition at 10 μM,DAPK1,−6.0%
same,% Inhibition at 10 μM,COT_Cascade,11.2%
CC(C)(C)Cc1[nH]nc2c1[C@](C)(c1ccccc1)C1=C(CC(C)(C)CC1=O)N2 [BRD3731],% Inhibition 10 μM,TAOK2; 10 μM,2.2%
same,% Inhibition 10 μM,FES; 10 μM,0.4%
same,% Inhibition 10 μM,MSSK1; 10 μM,2.8%
same,% Inhibition 10 μM,PHKG2; 10 μM,6.0%
same,% Inhibition 10 μM,ALK(F1174L); 10 μM,0.2%
same,% Inhibition 10 μM,PLK1; 10 μM,−0.7%
same,% Inhibition 10 μM,AMPKα2/β1/γ1; 10 μM,16.7%
same,% Inhibition 10 μM,MAP3K1_Cascade; 10 μM,4.0%
same,% Inhibition 10 μM,MST1; 10 μM,3.9%
same,% Inhibition 10 μM,SRM; 10 μM,0.9%
same,% Inhibition 10 μM,CK2α1/β; 10 μM,−2.1%
same,% Inhibition 10 μM,MOS_Cascade; 10 μM,−9.5%
same,% Inhibition 10 μM,PAK6; 10 μM,−46.8%
same,% Inhibition 10 μM,EEF2K; 10 μM,3.9%
same,% Inhibition 10 μM,CDK4/CycD3; 10 μM,18.1%
same,% Inhibition 10 μM,TEC; 10 μM,2.3%
same,% Inhibition 10 μM,IKKε; 10 μM,−1.4%
same,% Inhibition 10 μM,FGFR4(V550E); 10 μM,0.1%
same,% Inhibition 10 μM,CDK9/CycT1; 10 μM,11.3%
same,% Inhibition 10 μM,PKD3; 10 μM,2.6%
same,% Inhibition 10 μM,FYN; 10 μM,−1.3%
same,% Inhibition 10 μM,CHK2; 10 μM,1.5%
same,% Inhibition 10 μM,PGK; 10 μM,1.9%
same,% Inhibition 10 μM,PDGFRα; 10 μM,6.7%
same,% Inhibition 10 μM,MAPKAPK5; 10 μM,6.1%
same,% Inhibition 10 μM,KIT(V560G); 10 μM,1.4%
same,% Inhibition 10 μM,FGFR4; 10 μM,−8.1%
same,% Inhibition 10 μM,NEK7; 10 μM,−3.2%
same,% Inhibition 10 μM,p70S6K; 10 μM,12.5%
same,IC50,CDK3/CycE1; CDK3/CycE1,> 10 µM
same,% Inhibition 10 μM,"CDK3/CycE1; CDK3/CycE1, 10 μM",29.2%
same,Fold Selectivity,CDK3/CycE1; IC50 CDK3/CycE1 / IC50 GSK3β,>370 fold
same,% Inhibition 10 μM,CRIK; 10 μM,−0.7%
same,% Inhibition 10 μM,IRR; 10 μM,6.2%
same,% Inhibition 10 μM,MUSK; 10 μM,−7.9%
same,% Inhibition 10 μM,SGK; 10 μM,−0.4%
same,% Inhibition 10 μM,FGFR2; 10 μM,1.9%
same,% Inhibition 10 μM,CK1γ1; 10 μM,1.2%
same,% Inhibition 10 μM,DCAMKL2; 10 μM,−1.3%
same,% Inhibition 10 μM,PAK2; 10 μM,0.0%
same,% Inhibition 10 μM,DAPK1; 10 μM,−3.4%
same,% Inhibition 10 μM,COT_Cascade; 10 μM,10.5%
